In data set [1] the test system is P. falciparum Dd2Luc intraerythrocytic trophozoites. The data set is described as follows: Initial screen, intraerythrocytic P. falciparum, Malaria SYBR-Green I fluorescence assay. Format: cell-based, Plasmodium falciparum. The settings on record: Plasmodium falciparum, 48 h. The procedure: (§1) 634 compounds from the PhytoQuest Phytopure temperate plant natural product library were screened for growth inhibitory activity against L. mexicana axenic amastigotes, T. brucei bloodstream form, intraerythrocytic asexual P. falciparum (at 2 μM) and T. evansi bloodstream form parasites (at 1 μM). […] Our initial hits were defined as reducing growth of the parasite by ≥50%. […]
(§2) The PhytoQuest Phytopure library is a commercially available collection of purified compounds isolated predominantly from temperate zone plants, with structures confirmed by NMR and mass spectrometry. The library was provided as 634 non-polar compounds (1 mg/mL in DMSO). Initial screening was performed in a 96-well plate with 200 μL of parasite culture. The initial screen used each compound at a final concentration of 2 μM for L. mexicana axenic amastigotes, T. brucei and P. falciparum, and at 1 μM for T. evansi. L. mexicana axenic amastigotes were plated at 1 × 10^6 cells/mL, incubated for 72 h, and the Alamar Blue assay was used to assess parasite growth. Each compound was tested in triplicate, with two biological replicates (n = 6). T. brucei and T. evansi were plated at 1×10^5 cells/mL for 48 h, and the Alamar Blue assay was used to assess parasite growth. Each compound was tested in triplicate with two biological replicates (n = 6). Intraerythrocytic P. falciparum in the trophozoite stage were seeded at 0.5% parasitaemia and 2% haematocrit for 48 h, and the Malaria SYBR-Green I fluorescence assay was used to assess parasite growth. Each compound was tested in duplicate with two biological replicates (n = 4). Negative controls comprised an equivalent volume of DMSO (equivalent of 1% v/v) to normalise the growth data. Data points >100% growth and <0% growth were tabulated as 100% and 0%, respectively. Some compounds were not tested in all parasite lines as there was insufficient material remaining.

Data set [2] can be described thus: in vitro. The settings on record: human, pH 7, HepG2 CC50. From the text: Initial hits from the parasite panel screen were taken forward in log concentration versus normalised response assays to estimate the half maximal effective concentration (EC50) in hit species as well as the half maximal cytotoxic concentrations (CC50) in the human hepatoma cell line HepG2 as a preliminary test for selectivity. Using CC50/EC50 to define the selectivity index (SI), the selectivity for each compound in a defined species compared to a human cell line was estimated and compared to the EC50 (Figure 3).
(§3) L. mexicana strain MNYC/BZ/62/M379 and L. donovani strain LdBOB (a clonal line from strain MHOM/SD/62/1S-CL2) were maintained in vitro in the procyclic promastigote stage. Parasites were cultivated at 26 °C in Schneider’s medium (Gibco) pH 7.0 containing 10% FBS, 100 U/mL penicillin (Lonza) and 100 μg/mL streptomycin (Lonza) as previously described. Differentiation into axenic amastigotes was performed as described previously. Briefly, axenic amastigotes were cultivated at 32 °C in Schneider’s medium pH 5.5 containing 10% FBS, 100 U/mL penicillin (Lonza) and 100 μg/mL streptomycin (Lonza). Bloodstream form T. brucei brucei strain Lister 427 and T. evansi strain Antat 3/3 [59] were maintained in vitro at 37 °C with 5% (v/v) CO2 in HMI-11 medium supplemented with 10% FBS, as described elsewhere. Intraerythrocytic cultures of P. falciparum Dd2^Luc strain [62] were maintained at 37 °C in a 1% O2:3% CO2:96% N2 atmosphere in RPMI-1640 containing 37.5 mM HEPES, 5 mM NaOH, 10 mM D-glucose, 2 mM L-glutamine, 100 μM hypoxanthine, […] gentamicin sulfate, 5% human serum and 5% albumax-II and 2% haematocrit erythrocytes. When required, cultures were synchronised to ring stages using the sorbitol lysis method. Preliminary cytotoxicity screening was assessed using HepG2 cells. These cells were maintained in vitro at 37 °C with 5% (v/v) CO2 in DMEM (Sigma) pH 7 supplemented with 10% FBS, 100 U/mL penicillin (Lonza) and 100 μg/mL streptomycin (Lonza), as previously described. The human monocyte cell line THP-1 [68] was maintained in vitro by culturing at 37 °C with 5% (v/v) CO2 in complete RPMI medium (Dutch modified RPMI-1640 (Gibco) containing 10% FBS and 2 mM L-glutamine (Gibco)). Differentiation of THP-1 cells into macrophages was performed by seeding 2.5 × 10^5 cells/mL in complete RPMI media, supplemented with 20 ng/mL phorbol 12-myristate 13-acetate (PMA), followed by incubation at 37 °C with 5% (v/v) CO2 for 24 h.
EC50 values were determined by serial two-fold dilution of each compound in 96 well plates. Culture conditions and viability assays were as stated for the initial screen, with some exceptions. L. mexicana and L. donovani axenic amastigotes were seeded at 2 × 10^6 cell/s mL, T. brucei and T. evansi were seeded at 2 × 10^5 cells/mL. For cytotoxicity studies, HepG2 cells were seeded at 1 × 10^5 cells/mL, incubated for 48 h and viability was assessed using the Alamar Blue assay. Differentiated THP-1 cells were seeded at 5 × 10^4 cells/mL, incubated for 48 h, and viability was assessed by the Alamar Blue assay. Normalised growth and viability data (compared to untreated controls) were plotted against Log10 concentration to estimate EC50 in GraphPad (Prism v6). Bioluminescence relative rate of kill assays in asexual intraerythrocytic P. falciparum Dd2^Luc were carried out as described.

In data set [3] the test system is T. brucei bloodstream form. Description: Initial screen, T. brucei bloodstream form, Alamar Blue. Format: cell-based, Trypanosoma brucei brucei. Particulars: for activity at 2 µM: initial screen. The protocol:
(§4) 634 compounds from the PhytoQuest Phytopure temperate plant natural product library were screened for growth inhibitory activity against L. mexicana axenic amastigotes, T. brucei bloodstream form, intraerythrocytic asexual P. falciparum (at 2 μM) and T. evansi bloodstream form parasites (at 1 μM). […] Our initial hits were defined as reducing growth of the parasite by ≥50%.
as §3
as §2, with “The” for “The PhytoQuest Phytopure library is a commercially available collection of purified compounds isolated predominantly from temperate zone plants, with structures confirmed by NMR and mass spectrometry. The”

Data set [4] relates to L. mexicana axenic amastigotes. Description: Initial screen, L. mexicana axenic amastigotes, Alamar Blue. It is filed as cell-based, Leishmania mexicana. Particulars: for activity at 2 µM / inhibition of growth at 2 µM: Leishmania mexicana; for initial hit against L. mexicana / inhibition of growth at 2 µM: 2 μM; for initial hit against L. mexicana: growth inhibited by ≥80%; for inhibition of growth at 2 µM: x = initial hit, read-out: initial hit L.m. The protocol:
as §1, §2
(The colour change of resazurin is a common sign of viable cells or microbes.)

Data set [5] has as its system T. evansi. The data set is described as follows: Concentration-response EC50, T. evansi. It is filed as cell-based. Particulars: Trypanosoma evansi; bloodstream form, 48 h; read-out: T. evansi EC50.
Data set [6] relates to T. evansi bloodstream form. Description: Initial screen, T. evansi bloodstream form, Alamar Blue. Format: cell-based, Trypanosoma evansi. The settings on record: Trypanosoma evansi; for activity at 1 µM: initial screen; for inhibition of growth at 1 µM: x = initial hit, read-out: initial hit T.e. The protocol:
as §4, §3
as §2, with “The” for “The PhytoQuest Phytopure library is a commercially available collection of purified compounds isolated predominantly from temperate zone plants, with structures confirmed by NMR and mass spectrometry. The”

The subject of data set [7] is L. mexicana axenic amastigotes. The data set is described as follows: Concentration-response EC50, L. mexicana axenic amastigotes (WT). Format: cell-based, Leishmania mexicana. Particulars: Leishmania mexicana, 72 h, read-out: L. mexicana EC50, axenic amastigotes, 72 h.
Method: EC50 values were determined by serial two-fold dilution of each compound in 96 well plates. Culture conditions and viability assays were as stated for the initial screen, with some exceptions. L. mexicana and L. donovani axenic amastigotes were seeded at 2 × 10^6 cell/s mL, T. brucei and T. evansi were seeded at 2 × 10^5 cells/mL. For cytotoxicity studies, HepG2 cells were seeded at 1 × 10^5 cells/mL, incubated for 48 h and viability was assessed using the Alamar Blue assay [66, 67]. […] Normalised growth and viability data (compared to untreated controls) were plotted against Log10 concentration to estimate EC50 in GraphPad (Prism v6).
Data set [8] in a line: Cytotoxicity CC50, differentiated THP-1, Alamar Blue. The settings on record: human, THP-1 cells differentiated into macrophages with PMA, differentiated THP-1, 48 h; read-out: THP1 CC50. It is filed as cell-based, human. The text has this:
The four lanosterone-like sterols derived from the Noble Fir Abies procera (700022, 700107, 700136) and the Grand Fir Abies grandis (700240) were the only initial compounds taken forward for L. mexicana due to their nanomolar activity and apparent low cytotoxicity (Figure 3a). […] Understanding the impact of the ring-opened lactone head group in this compound compared to the other three warrants further analysis in exploring their structure-activity relationships. These four sterols were also tested for growth inhibitory activity against L. donovani axenic amastigotes. […] As Leishmania spp. amastigotes typically reside with macrophages, further cytotoxicity assays with these sterols were performed against an activated monocyte cell line (THP-1) (Figure 4b). […]

The mark [9] stands for this setting: read-out: %growth P. falciparum, mean % growth compared to a normalised control with same concentration of DMSO solvent, initial screen.
Where [10] appears, read: Trypanosoma brucei, mean % growth compared to a normalised control with same concentration of DMSO solvent, read-out: % growth T. b. brucei.
Where [11] appears, read: read-out: % growth L. mexicana, mean % growth compared to a normalised control with same concentration of DMSO solvent, initial screen.
The mark [12] stands for this setting: mean % growth compared to a normalised control with same concentration of DMSO solvent, read-out: % growth T. evansi.
Where [13] appears, read: read-out: mean % growth, P. falciparum, initial screen, compared to a normalised control with same concentration of DMSO solvent.
Setting [14] is: Trypanosoma brucei, compared to a normalised control with same concentration of DMSO solvent, read-out: mean % growth, T. b. brucei.
The mark [15] stands for this setting: read-out: mean % growth, L. mexicana, initial screen, compared to a normalised control with same concentration of DMSO solvent.
Where [16] appears, read: compared to a normalised control with same concentration of DMSO solvent, read-out: mean % growth, T. evansi.

7 compounds from article PMC7998250, “Temperate Zone Plant Natural Products—A Novel Resource for Activity against Tropical Parasitic Diseases” (Pharmaceuticals, 2021) can be followed below.

Each structure is given as a SMILES string. Read-outs that look alike come from different tables or passages of the source.

For orientation: EC50 means the concentration at which the effect is half-maximal. With `C/C=C(\C)C(=O)OC1C(C)OC(Oc2c(C(C)C)ccc(C)c2O)C(O)C1OC1OC(C)C(OC(=O)C(C)CC)C(O)C1O` (stereo not shown) [Compound 700004], the results for the activity at 2 µM in data set [1] (setting [9]), in data set [3] (setting [10]) and in data set [4] (setting [11]) were 101%, 14% and 48.1%, respectively. Also, in data set [2], the CC50 at 48 h came out at 16000 nM. In addition, the “initial hit against T. brucei” value in data set [3] (2 μM, growth reduced by ≥50%) is listed as “initial hits”. For the same compound, in data set [3] (Trypanosoma brucei, 2 μM, x = initial hit, read-out: initial hit T.b), the inhibition of growth at 2 µM was more than 50%. Further, the EC50 in data set [5] is 357 nM. Moreover, the activity at 1 µM in data set [6] (setting [12]) stood at 0.7%. In addition, the inhibition of growth at 1 µM in data set [6] was more than 50%.

As to `COc1ccc(CC2COC(=O)C2Cc2ccc(OC)c(O)c2O)cc1OC` (stereo not shown) [Compound 700144], the results for the activity at 2 µM in data set [1] (setting [9]), in data set [3] (setting [10]) and in data set [4] (setting [11]) were 82.6%, 69.4% and 83.6%, respectively. The CC50 at 48 h in data set [2] was more than 100000 nM. In addition, in data set [5], the concentration for a half-maximal effect (EC50) was 451 nM. Also, the activity at 1 µM in data set [6] (setting [12]) turned out to be 35.8%. The inhibition of growth at 1 µM in data set [6] is more than 50%.

With `C/C(=C\C(=O)O)C(O)CC12CCCCC1C(C)(C(=O)OC(O)O)CCC2` (stereo not shown) [Compound 700513], the activity at 2 µM in data set [1] (setting [13]) was 97%; in data set [3] (setting [14]), 104%; in data set [4] (setting [15]), 56.5%. The compound further registered a CC50 at 48 h in data set [2] of more than 100000 nM. Moreover, in data set [5], the EC50 is 756 nM. Moreover, the activity at 1 µM in data set [6] (setting [16]) worked out at 50%. For the same compound, the inhibition of growth at 1 µM in data set [6] was more than 50%.

`C=C1C(=O)OC2/C=C(/C)CC/C=C(/C)CC(OC(=O)/C(C)=C\CO)C12` (stereo not shown) [Compound 700756]: in data set [7], the EC50 amounted to 1000 nM. Further, the inhibition of growth at 2 µM in data set [1] (read-out: initial hit P.f) is more than 50%; in data set [4], more than 80%. Further, the activity at 2 µM is 44% in data set [1] (setting [13]), 53.7% in data set [3] (setting [14]) and 2.9% in data set [4] (setting [15]). For the same compound, in data set [8], the CC50 at 48 h was 2800 nM. Also, the “initial hit against L. mexicana” value in data set [4] was “initial hits”. Also, the activity at 1 µM in data set [6] (setting [16]) amounted to 98.4%.

As for `CC#CC#CC(=O)c1cccc(OC)c1C(=O)OC` [Compound 701044], in data set [7], the 50% effective concentration (EC50) stood at 330 nM. Also, the activity at 2 µM was 92.6% in data set [1] (setting [13]), 79.3% in data set [3] (setting [14]) and -4.5% in data set [4] (setting [15]). Also, in data set [8], the CC50 at 48 h was 2200 nM. Moreover, the “initial hit against L. mexicana” value in data set [4] was “initial hits”. Besides, the inhibition of growth at 2 µM in data set [4] was more than 80%. In addition, the activity at 1 µM in data set [6] (setting [16]) worked out at 90.3%.

Consider `CC(=O)OC1C(COC(=O)/C=C/c2ccc(O)cc2)OC(Oc2c(-c3ccc(O)cc3)oc3cc(O)cc(O)c3c2=O)C(OC(=O)/C=C/c2ccc(O)cc2)C1O` (stereo not shown) [Compound 701088], for which the values for the activity at 2 µM in data set [1] (setting [13]), in data set [3] (setting [14]) and in data set [4] (setting [15]) were 99.9%, 63% and 81.1%, respectively. In data set [2], the CC50 at 48 h came out at 54000 nM. For the same compound, the concentration for a half-maximal effect (EC50) in data set [5] came to 816 nM. For the same compound, in data set [6] (setting [16]), the activity at 1 µM was 42.7%. Besides, the inhibition of growth at 1 µM in data set [6] is more than 50%.

Consider `C=C(CC)C(=O)OC1CC(=C)C2CC(O)C(=C)C2C2OC(=O)C(=C)C12` (stereo not shown) [Compound 701212], for which, in data set [7], the EC50 was found to be 330 nM. In addition, the activity at 2 µM in data set [1] (setting [13]) is 84.7%; in data set [3] (setting [14]) it was 77.1%; in data set [4] (setting [15]), 1.5%. For the same compound, in data set [8], the CC50 at 48 h stood at 520 nM. Further, in data set [4], the “initial hit against L. mexicana” value is recorded as “initial hits”. For the same compound, the inhibition of growth at 2 µM in data set [4] is more than 80%. For the same compound, the activity at 1 µM in data set [6] (setting [16]) was 86.5%.
